Laboratory results: patent US20240016874A1, “COMPOSITIONS AND METHODS FOR PREVENTING AND TREATING CORONAVIRUSES” (priority 2020, published 2024)

Tested on: SARS-CoV-2-PP (614G, Delta, UK, Brazil variants) infecting ACE2 expression cells
Format: cell-based

Structure (SMILES)	difference of effect between variants	effect on variants when combined with Oleic acid or Linoleic acid	inhibition of SARS-CoV-2-PP infection
CCCCCCCCCCCCCCCC(=O)O [palmitic acid]	a difference between the Brazil variant and the other variants	strongest inhibition on the Delta variant	good inhibitor
CC1=CC(=O)C(C(C)C)=CC1=O [thymoquinone]			good inhibitor
